Reference: patent publication US20060073112A1, “Method of preventing hydrogen sulfide odor generation in an aqueous medium” (priority 2004, published 2006)

Columns and labels:
[1] = test system: sulfate reducing bacteria; assay: Inhibition of hydrogen sulfide generation by sulfate reducers in serum bottles; format: cell-based; conditions: 48 hours incubation; for Sulfide Formation Level Sample A: replicate bottle A; for Sulfide Formation Level Sample B: replicate bottle B; for Sulfide Formation Level Sample C: replicate bottle C
Description: The test protocol was as follows: 100 mL serum bottles were filled with synthetic nutrient medium, then stoppered, capped, and autoclaved, and allowed to cool to at least 35° C. Using a 1 mL syringe with needle, the treatment was added at desired dosages to prepared serum bottles (triplicates of each dosage). No treatment was added for baseline controls. Nine baseline serum bottles were used. Next, a 10^10 cells/ml concentration of the sulfate reducers was prepared (using autoclaved synthetic nutrient medium) inside an anaerobic chamber. Using a 1 ml syringe with needle, 0.1 ml of the prepared sulfate reducers culture was added to each serum bottle. The bottles were then incubated at the desired temperature for 48 hours. The baseline dissolved sulfide levels were then measured to determine if the samples were ready for efficacy analysis. Using a 30 mL syringe with needle, 30 mL of sample was removed from each serum bottle. About 25 mL of the sample was added to a 30 mL bottle containing 0.125 mL zinc acetate solution, followed by adding 1 mL of 1N NaOH. The sulfide in the fixed sample was then measured. If the control sample sulfide levels were >10 ppm, then the whole series of test vials was evaluated for generated sulfide. The remaining 5 mL of sample in the syringe was used for a final pH determination.

[2] = test system: sulfate reducing bacteria; assay: Sulfate reducing bacteria viability (SRB/ml) after treatment; format: cell-based
Description: The test protocol was as follows: 100 mL serum bottles were filled with synthetic nutrient medium, then stoppered, capped, and autoclaved, and allowed to cool to at least 35° C. Using a 1 mL syringe with needle, the treatment was added at desired dosages to prepared serum bottles (triplicates of each dosage). No treatment was added for baseline controls. Nine baseline serum bottles were used.
Next, a 10^10 cells/ml concentration of the sulfate reducers was prepared (using autoclaved synthetic nutrient medium) inside an anaerobic chamber. Using a 1 ml syringe with needle, 0.1 ml of the prepared sulfate reducers culture was added to each serum bottle. The bottles were then incubated at the desired temperature for 48 hours.

SMILES: Sc1nc2ccccc2s1 [2-mercaptobenzothiazole]
- Sulfide Formation Level Sample A ([1]; inhibitor dose conc. 25 ppm): 0 (0 = <0.1 ppm Sulfide)
- Sulfide Formation Level Sample B ([1]; inhibitor dose conc. 25 ppm): 0 (0 = <0.1 ppm Sulfide)
- Sulfide Formation Level Sample C ([1]; inhibitor dose conc. 25 ppm): 0 (0 = <0.1 ppm Sulfide)
- Sulfide Formation Level Sample A ([1]; inhibitor dose conc. 50 ppm): 0 (0 = <0.1 ppm Sulfide)
- Sulfide Formation Level Sample B ([1]; inhibitor dose conc. 50 ppm): 0 (0 = <0.1 ppm Sulfide)
- Sulfide Formation Level Sample C ([1]; inhibitor dose conc. 50 ppm): 0 (0 = <0.1 ppm Sulfide)
- Sulfide Formation Level Sample A ([1]; inhibitor dose conc. 100 ppm): 0 (0 = <0.1 ppm Sulfide)
- Sulfide Formation Level Sample B ([1]; inhibitor dose conc. 100 ppm): 0 (0 = <0.1 ppm Sulfide)
- Sulfide Formation Level Sample C ([1]; inhibitor dose conc. 100 ppm): 0 (0 = <0.1 ppm Sulfide)
- SRB/ml ([2]; inhibitor dose conc. 25 ppm): 10,000 SRB/ml
- SRB/ml ([2]; inhibitor dose conc. 50 ppm): 100,000 SRB/ml
- SRB/ml ([2]; inhibitor dose conc. 100 ppm): 10,000 SRB/ml

SMILES: NCCO [monoethanolamine]
- Sulfide Formation Level Sample A ([1]; inhibitor dose conc. 25 ppm): 1+ (1+ = 0.1-1.0 ppm Sulfide)
- Sulfide Formation Level Sample B ([1]; inhibitor dose conc. 25 ppm): 1+ (1+ = 0.1-1.0 ppm Sulfide)
- Sulfide Formation Level Sample C ([1]; inhibitor dose conc. 25 ppm): 1+ (1+ = 0.1-1.0 ppm Sulfide)
- Sulfide Formation Level Sample A ([1]; inhibitor dose conc. 50 ppm): 1+ (1+ = 0.1-1.0 ppm Sulfide)
- Sulfide Formation Level Sample B ([1]; inhibitor dose conc. 50 ppm): 1+ (1+ = 0.1-1.0 ppm Sulfide)
- Sulfide Formation Level Sample C ([1]; inhibitor dose conc. 50 ppm): 0 (0 = <0.1 ppm Sulfide)
- Sulfide Formation Level Sample A ([1]; inhibitor dose conc. 100 ppm): 0 (0 = <0.1 ppm Sulfide)
- Sulfide Formation Level Sample B ([1]; inhibitor dose conc. 100 ppm): 0 (0 = <0.1 ppm Sulfide)
- Sulfide Formation Level Sample C ([1]; inhibitor dose conc. 100 ppm): 0 (0 = <0.1 ppm Sulfide)
- SRB/ml ([2]; inhibitor dose conc. 25 ppm): 100,000 SRB/ml
- SRB/ml ([2]; inhibitor dose conc. 50 ppm): 100,000 SRB/ml
- SRB/ml ([2]; inhibitor dose conc. 100 ppm): 100,000 SRB/ml

SMILES: CC[C@@]1([C@@H]2O[C@@H]([C@H]3O[C@@](O)(CO)[C@H](C)C[C@@H]3C)C[C@@H]2C)CC[C@H]([C@]2(C)CC[C@]3(C[C@H](O)[C@@H](C)[C@@H]([C@@H](C)[C@@H](OC)[C@H](C)C(=O)O)O3)O2)O1 [monensin, reference compound]
- Sulfide Formation Level Sample A ([1]; inhibitor dose conc. 25 ppm): 1+ (1+ = 0.1-1.0 ppm Sulfide)
- Sulfide Formation Level Sample B ([1]; inhibitor dose conc. 25 ppm): 1+ (1+ = 0.1-1.0 ppm Sulfide)
- Sulfide Formation Level Sample C ([1]; inhibitor dose conc. 25 ppm): 0 (0 = <0.1 ppm Sulfide)
- Sulfide Formation Level Sample A ([1]; inhibitor dose conc. 50 ppm): 0 (0 = <0.1 ppm Sulfide)
- Sulfide Formation Level Sample B ([1]; inhibitor dose conc. 50 ppm): 0 (0 = <0.1 ppm Sulfide)
- Sulfide Formation Level Sample C ([1]; inhibitor dose conc. 50 ppm): 0 (0 = <0.1 ppm Sulfide)
- Sulfide Formation Level Sample A ([1]; inhibitor dose conc. 100 ppm): 0 (0 = <0.1 ppm Sulfide)
- Sulfide Formation Level Sample B ([1]; inhibitor dose conc. 100 ppm): 0 (0 = <0.1 ppm Sulfide)
- Sulfide Formation Level Sample C ([1]; inhibitor dose conc. 100 ppm): 0 (0 = <0.1 ppm Sulfide)
- SRB/ml ([2]; inhibitor dose conc. 25 ppm): 1,000,000 SRB/ml
- SRB/ml ([2]; inhibitor dose conc. 50 ppm): 100,000 SRB/ml
- SRB/ml ([2]; inhibitor dose conc. 100 ppm): 10,000 SRB/ml
